Where two headings read alike, the source gives them in different places.
Experiments:
[1] = Whole plasma pharmacokinetics of benznidazole in mice (HPLC); assay type: in vivo, mouse; conditions: for i.p. bioavailability (from AUC0-∞): 65 mg kg-1 i.p.; for half-life / Tmax: mouse; for Tmax: read-out: time of peak plasma concentration (converted)
Description: (§1) Br. J. Cancer (1984), 50, 291-303 Preclinical pharmacokinetics of benznidazole P. Workman', R.A.S. White2, M.I. Walton', L.N. Owen2* & P.R. Twentyman' 1MRC Clinical Oncology and Radiotherapeutics Unit, MRC Centre, Hills Road, Cambridge CB2 2QH, and 2Department of Clinical Veterinary Medicine, University of Cambridge, Madingley Road, Cambridge CB3 OES, UK. […] We have investigated the detailed pharmacokinetics of benznidazole in mice, dogs and sheep to provide a data base for the estimation of doses required for chemosensitization in man. Pharmacokinetic behaviour was linear except at high doses in mice. Absorption was fairly rapid and bioavailability was complete following both i.p. administration in mice and oral administration in dogs. Elimination t4 values were longer than for MISO, being 90 min in mice, 4-5 h in sheep and 9-11 h in dogs. At doses giving linear kinetics, peak whole plasma concentrations per administered mgkg-1 were 0.75 jigml-1 for the i.p. route in mice and 1.8jugmlP' for the oral route in dogs. Though between 39 and 59% of plasma benznidazole was bound to protein, tissue penetration was generally good. Tissue/whole plasma ratios ranged from 59-99% for transplantable mouse tumours and from 14-70% for spontaneous dog neoplasms. Nervous tissue penetration was similar to that in tumours: brain/whole plasma ratios averaged between 61 and 76% in mice and 42% in dogs, while peripheral nerve/whole plasma ratios in dogs averaged 74%. Mean liver/whole plasma ratios were 42% and 71% in BALB/c and C3H/He mouse strains respectively. Only -5% of the administered dose was excreted unchanged in the urine, indicating the likelihood of extensive metabolism. […] Enhancement of CCNU response is likely to require circulating benznidazole concentrations of 10-30 pgml-1 and we predict that these will be obtained with oral doses of 6-20 mgkg- 1 in man. […] This enhancement, or chemosensitization, is usually greater than that seen in dose-limiting normal tissues, resulting in an improved therapeutic index. Because of the relatively high doses of MISO usually required for chemosensitization in mice (see above refs), and also because of its neurotoxicity in man (Dische et al., 1977), we have been interested in finding an improved chemosensitizer. […] The lipophilic ana- logue benznidazole (N-benzyl-(2-nitroimidazolyl) acetamide, Ro 07-1051; Radanil; Roche), the structure of which is shown in Figure 1, was selected for detailed study because of its ability to *Present address: Animal Health Trust, Small Animals Centre, Lanwades Park, Kennett, Newmarket, Suffolk CB8 7PN, UK. Correspondence: P. Workman. […] These findings have been confirmed independently by Siemann et al. (1983). Although benznidazole is used quite widely in South America to treat patients with the trypanosomal infection Chagas' disease or with mucotaneous Leishmaniasis (Barclay et al., 1978; Cerisola et al., 1978; Coura et al., 1978; Fava et al., 1978), apart from our preliminary studies (White et al., 1982) the only published data on its pharmaco- kinetics are for human plasma concentrations measured by polarography (Raaflub & Ziegler, 1979; Raaflub, 1980). Here we describe the pharmacokinetics of benznidazole in the mouse, sheep and dog, as determined by high-performance liquid chromatography (HPLC). […] The Macmillan Press Ltd., 1984 292 P. WORKMAN et al. particularly on plasma and tumour concentrations, have been used as a basis for the estimation of the benznidazole doses required in a Phase I trial of benznidazole plus CCNU, at present ongoing in our Unit. Materials and methods Animals and tumours Adult inbred male BALB/c mice were obtained from OLAC (Southern) Ltd. (Bicester, UK) and adult inbred C3H/He mice of both sexes from OLAC and our own breeding colony. Mice were housed in plastic cages on sawdust bedding made from soft white woods, and allowed laboratory chow and water ad lib. They were used at 20-35 g body wt.

[2] = Whole plasma pharmacokinetics in sheep (HPLC); assay type: in vivo; conditions: for half-life: male, Clun Forest/Border Leicester cross, sheep, plasma, iv
Description: Br. J. Cancer (1984), 50, 291-303 Preclinical pharmacokinetics of benznidazole P. Workman', R.A.S. White2, M.I. Walton', L.N. Owen2* & P.R. Twentyman' 1MRC Clinical Oncology and Radiotherapeutics Unit, MRC Centre, Hills Road, Cambridge CB2 2QH, and 2Department of Clinical Veterinary Medicine, University of Cambridge, Madingley Road, Cambridge CB3 OES, UK. […] We have investigated the detailed pharmacokinetics of benznidazole in mice, dogs and sheep to provide a data base for the estimation of doses required for chemosensitization in man. Pharmacokinetic behaviour was linear except at high doses in mice. Absorption was fairly rapid and bioavailability was complete following both i.p. administration in mice and oral administration in dogs. Elimination t4 values were longer than for MISO, being 90 min in mice, 4-5 h in sheep and 9-11 h in dogs. At doses giving linear kinetics, peak whole plasma concentrations per administered mgkg-1 were 0.75 jigml-1 for the i.p. route in mice and 1.8jugmlP' for the oral route in dogs. Though between 39 and 59% of plasma benznidazole was bound to protein, tissue penetration was generally good. Tissue/whole plasma ratios ranged from 59-99% for transplantable mouse tumours and from 14-70% for spontaneous dog neoplasms. Nervous tissue penetration was similar to that in tumours: brain/whole plasma ratios averaged between 61 and 76% in mice and 42% in dogs, while peripheral nerve/whole plasma ratios in dogs averaged 74%. Mean liver/whole plasma ratios were 42% and 71% in BALB/c and C3H/He mouse strains respectively. Only -5% of the administered dose was excreted unchanged in the urine, indicating the likelihood of extensive metabolism. […] Enhancement of CCNU response is likely to require circulating benznidazole concentrations of 10-30 pgml-1 and we predict that these will be obtained with oral doses of 6-20 mgkg- 1 in man. […] This enhancement, or chemosensitization, is usually greater than that seen in dose-limiting normal tissues, resulting in an improved therapeutic index. Because of the relatively high doses of MISO usually required for chemosensitization in mice (see above refs), and also because of its neurotoxicity in man (Dische et al., 1977), we have been interested in finding an improved chemosensitizer. […] The lipophilic ana- logue benznidazole (N-benzyl-(2-nitroimidazolyl) acetamide, Ro 07-1051; Radanil; Roche), the structure of which is shown in Figure 1, was selected for detailed study because of its ability to *Present address: Animal Health Trust, Small Animals Centre, Lanwades Park, Kennett, Newmarket, Suffolk CB8 7PN, UK. Correspondence: P. Workman. […] These findings have been confirmed independently by Siemann et al. (1983). Although benznidazole is used quite widely in South America to treat patients with the trypanosomal infection Chagas' disease or with mucotaneous Leishmaniasis (Barclay et al., 1978; Cerisola et al., 1978; Coura et al., 1978; Fava et al., 1978), apart from our preliminary studies (White et al., 1982) the only published data on its pharmaco- kinetics are for human plasma concentrations measured by polarography (Raaflub & Ziegler, 1979; Raaflub, 1980). Here we describe the pharmacokinetics of benznidazole in the mouse, sheep and dog, as determined by high-performance liquid chromatography (HPLC). […]

[3] = system: plasma proteins; test: In vivo plasma protein binding in dogs (plasma ultrafiltrate); conditions: beagle, dog, plasma, po, 50 mg kg-1, dog E, 50 mg kg-1 oral; full time course; read-out: protein binding (mean+s.e., n=8) (converted)
Description: as §1

peak whole plasma concentration (+2 s.e.) ([1]; BALB/c mice, 26 mg kg-1 i.p.): 18.0+3.7 µg ml-1
i.p. bioavailability (from AUC0-∞) ([1]; BALB/c mice, 50% polyethylene glycol/saline vehicle): 87%
i.p. bioavailability (from AUC0-∞) ([1]; BALB/c mice, dimethyl sulphoxide vehicle): 113%
peak whole plasma concentration (+2 s.e.) ([1]; BALB/c mice, 78 mg kg-1 i.p.): 36.0+2.5 µg ml-1
peak whole plasma concentration (+2 s.e.) ([1]; BALB/c mice, 650 mg kg-1 i.p.): 105+15 µg ml-1
blood/whole plasma concentration ratio, overall mean (s.e., n=16) ([1]; BALB/c mice, 650 mg kg-1 i.p. in arachis oil, 45-135 min): 116+4%
whole plasma concentration remaining at 24 h ([1]; BALB/c mice, 650 mg kg-1 i.p., experiment of Figure 3): 15 µg/mL
half-life ([1]; male, plasma, ip, BALB/c mice, 26 mg kg-1 i.p., suspension in 50% polyethylene glycol, read-out: elimination half-life (95% confidence limits)): 1.55 h
half-life ([1]; male, plasma, ip, BALB/c mice, 68 mg kg-1 (so in the source) i.p., suspension in 50% polyethylene glycol, read-out: elimination half-life (95% confidence limits)): 1.6 h
Tmax ([1]; male, plasma, ip, BALB/c mice, 650 mg kg-1 i.p.): 1 h
Tmax ([1]; male, plasma, ip, BALB/c mice, 26 and 78 mg kg-1 i.p.): 0.25 to 0.5 h
half-life ([1]; male, plasma, iv, BALB/c mice, 32.5 mg kg-1 i.v. in dimethyl sulphoxide, read-out: elimination half-life (95% confidence limits)): 1.98 h
half-life ([1]; male, plasma, iv, BALB/c mice, 65 mg kg-1 i.v. in dimethyl sulphoxide, read-out: elimination half-life (95% confidence limits)): 1.95 h
peak whole plasma concentration that would be produced ([1]; mice, 13 mg kg-1 i.p.): about 10 µg ml-1
whole plasma concentration (dose-peak concentration curve, Figure 4) ([1]; mice, 26 mg kg-1 i.p.): 20 µg/mL
whole plasma concentration ([1]; mice, 78 mg kg-1 i.p., discussion summary): 30 µg/mL
whole plasma concentration (dose-peak concentration curve, Figure 4) ([1]; mice, 650 mg kg-1 i.p.): 90 µg/mL
whole plasma concentration remaining at 24 h ([1]; mice, 650 mg kg-1 i.p., some other experiments (undetectable)): < 0.2 µg/mL
peak whole plasma concentration per administered mg kg-1 ([1]; mice, i.p. route, doses giving linear kinetics): 0.75 micrograms ml-1
half-life ([1]; plasma, mice, summary value, read-out: elimination t1/2): 1.5 h
metabolites detectable by HPLC with u.v. detection at 313 nm ([1]; plasma, urine and tissues of all species studied): no evidence of metabolites
half-life ([2]; 4 mg/kg, sheep 1, 4 mg kg-1 i.v., read-out: elimination t1/2 (95% confidence limits) (converted)): 5.2 h
half-life ([2]; 4 mg/kg, sheep 2, 4 mg kg-1 i.v., read-out: elimination t1/2 (95% confidence limits) (converted)): 3.8 h
half-life ([2]; summary value, read-out: elimination t1/2): 4 to 5 h
peak whole plasma concentration ([2]; sheep 1, 4 mg kg-1 i.v.): 3.6 µg/mL
peak whole plasma concentration ([2]; sheep 2, 4 mg kg-1 i.v.): 2.5 µg/mL
fraction unbound [3]: 0.45
SMILES: O=C(Cn1ccnc1[N+](=O)[O-])NCc1ccccc1 [benznidazole, N-benzyl-(2-nitroimidazolyl) acetamide]

Source: PMC1976805, “Preclinical pharmacokinetics of benznidazole” (British Journal of Cancer, 1984)
